Laboratory results: ChEMBL document CHEMBL3228010, “Potential antitumor agents. 29. Quantitative structure-activity relationships for the antileukemic bisquaternary ammonium heterocycles” (J Med Chem, 1979)
Several values for one entry are separate records, joined by “and”; a condition that tells them apart may be missing. Equal entries are not always repeated.

Legend:
[1] = Lipophilic-hydrophilic balance, Rm of the compound by partition chromatography; type: physicochemical
[2] = system: L1210; test: Antitumor activity against mouse L1210 cells […] in ip dosed C3H X DBA2 F1 hybrid mouse on day 0 and dosed at LD10 level once daily on days 1 to 5 assessed as increase in life span relative to control; type: functional
[3] = system: L1210; test: Antitumor activity against mouse L1210 cells […] in ip dosed C3H X DBA2 F1 hybrid mouse on day 0 and dosed once daily on days 1 to 5 assessed as increase in life span relative to control; type: functional
[4] = Displacement of ethidium from poly[d(A)]-poly[d(T)] DNA (unknown origin) by fluorimetric method
[5] = Displacement of ethidium from poly[d(A-T)]-poly[d(A-T)] DNA by fluorimetric method
[6] = system: Mus musculus; test: Toxicity in ip dosed C3H X DBA2 F1 hybrid mouse […] with mouse L1210 cells on day 0 and dosed once daily on days 1 to 5 measured after 50 days; type: organism-based; settings: in vivo, 1200 h
[7] = organism: Bos taurus; test: Displacement of ethidium from calf thymus DNA by fluorimetric method
[8] = Displacement of ethidium from poly[d(G-C)]-poly[d(G-C)] DNA (unknown origin) by fluorimetric method

| SMILES | Rm [1] | log(ILSmax) [2] | D40 [3] [mg/kg] | C50 [4] [µM] | C50 [5] | LD10 [6] [mg/kg] | C50 [7] | C50 [8] |
| --- | --- | --- | --- | --- | --- | --- | --- | --- |
| CCC[n+]1cccc(NC(=O)c2ccc(NC(=O)c3ccc(C(=O)Nc4ccc(C(=O)Nc5ccc[n+](CCC)c5)cc4)cc3)cc2)c1.Cc1ccc(S(=O)(=O)[O-])cc1.Cc1ccc(S(=O)(=O)[O-])cc1 | 0.13 | 2.06 | 12.9 | 0.12 | 0.39 µM | 27 | 0.44 µM | 0.9 µM |
| CC[n+]1ccc(Nc2ccc(NC(=O)c3ccc(Nc4cc[n+](CC)c5cc(N)ccc45)cc3N)cc2)cc1.[Br-].[Br-] | 0.07 | 2.39 | 1.4 | 0.054 | 0.13 µM | 11 | 0.52 µM | 1.11 µM |
| C[n+]1cccc(-c2ccc(NC(=O)c3ccc(C(=O)Nc4ccc(-c5ccc(-c6ccc(-c7ccc[n+](C)c7)cc6)cc5)cc4)cc3)cc2)c1.Cc1ccc(S(=O)(=O)[O-])cc1.Cc1ccc(S(=O)(=O)[O-])cc1 | -0.75 | 2.1 | 17.9 | 0.16 | 0.22 µM | 65 | 0.29 µM | 0.37 µM |
| C[n+]1cccc(NC(=O)c2ccc(NC(=O)c3ccc(C(=O)Nc4ccc(C(=O)Nc5ccc[n+](C)c5)cc4)cc3)cc2)c1 | – | – | – | 0.13 | 0.79 µM and 0.41 µM | – | 0.83 µM and 0.42 µM | 1.6 µM and 0.91 µM |
| C[n+]1cccc(NC(=O)c2ccc(C(=O)Nc3ccc[n+](C)c3)cc2)c1.Cc1ccc(S(=O)(=O)[O-])cc1.Cc1ccc(S(=O)(=O)[O-])cc1 | 0 | <1.4 | – | 3.8 | 63 µM | 5 | 61 µM | 80 µM |
| C[n+]1ccccc1Nc1ccc(NC(=O)c2ccc(C(=O)Nc3ccc(Nc4cccc[n+]4C)cc3)cc2)cc1.Cc1ccc(S(=O)(=O)[O-])cc1.Cc1ccc(S(=O)(=O)[O-])cc1 | 0.13 | <1.4 | – | 0.15 | 2.8 µM | 16 | 5.6 µM | 8.8 µM |
| Cc1cc(C(=O)Nc2ccc(C(=O)Nc3ccc[n+](C)c3)cc2)ccc1C(=O)Nc1ccc(C(=O)Nc2ccc[n+](C)c2)cc1.Cc1ccc(S(=O)(=O)[O-])cc1.Cc1ccc(S(=O)(=O)[O-])cc1 | 0.06 | 2.09 | 5.7 | – | 1 µM | 14 | 1.2 µM | 2.4 µM |
| C[n+]1cccc(NC(=O)c2ccc(NC(=O)c3ccc(C(=O)Nc4ccc(C(=O)Nc5ccc[n+](C)c5)cc4)c(Cl)c3)cc2)c1.Cc1ccc(S(=O)(=O)[O-])cc1.Cc1ccc(S(=O)(=O)[O-])cc1 | 0.05 | 2.11 | 5.6 | – | 0.95 µM | 30 | 1 µM | 2 µM |
| C[n+]1cc(-c2ccc(NC(=O)c3ccc(Nc4cc[n+](C)c5ccccc45)cc3)cc2)c(N)nc1N.Cc1ccc(S(=O)(=O)[O-])cc1.Cc1ccc(S(=O)(=O)[O-])cc1 | -0.01 | 2.27 | 3.5 | – | 0.22 µM | 20 | 1.24 µM | 2.73 µM |
| C[n+]1ccc(Nc2ccc(NC(=O)/C=C/c3ccc(C(=O)Nc4ccc(Nc5cc[n+](C)cc5)c(N)c4)cc3)cc2N)cc1.Cc1ccc(S(=O)(=O)[O-])cc1.Cc1ccc(S(=O)(=O)[O-])cc1 | 0.04 | 2.3 | 1.4 | – | 0.08 µM | 6.7 | 1.5 µM | 1.5 µM |
| COc1ccc2c(c1)c(Nc1ccc(C(=O)Nc3ccc(Nc4cc[n+](C)cc4)cc3)cc1)cc[n+]2C.Cc1ccc(S(=O)(=O)[O-])cc1.Cc1ccc(S(=O)(=O)[O-])cc1 | 0.46 | 2.2 | 1.5 | – | 0.19 µM | 50 | 0.68 µM | 1.15 µM |
| C[n+]1ccc(Nc2ccc(/C=C/c3ccc(Nc4cc[n+](C)c5ccccc45)cc3)cc2)cc1.[Br-].[Br-] | 0.61 | 1.89 | 12 | – | 0.13 µM | 23 | 0.34 µM | 0.67 µM |
| CC[n+]1cccc(NC(=O)c2ccc(NC(=O)c3ccc(C(=O)Nc4ccc5c(ccc[n+]5CC)c4)cc3)cc2)c1.Cc1ccc(S(=O)(=O)[O-])cc1.Cc1ccc(S(=O)(=O)[O-])cc1 | 0.09 | 2.2 | 2.3 | – | 0.62 µM | 9 | 0.74 µM | 1.48 µM |
| COc1cc(NC(=O)c2ccc(Nc3cc[n+](C)cc3)cc2)ccc1Nc1cc[n+](C)c2cc(N)ccc12.[Br-].[Br-] | 0.14 | 2.23 | 3 | – | 0.15 µM | 14 | 0.69 µM | 1.18 µM |
| C[n+]1cc(-c2ccc(NC(=O)c3ccc(Nc4cc[n+](C)c5ccc(N)cc45)cc3N)cc2)c(N)nc1N.Cc1ccc(S(=O)(=O)[O-])cc1.Cc1ccc(S(=O)(=O)[O-])cc1 | -0.25 | 2.41 | 4.4 | – | 0.11 µM | 75 | 0.62 µM | 1.08 µM |
| C[n+]1cccc(NC(=O)c2ccc(NC(=O)c3ccc(C(=O)Nc4ccc(-c5ccc(-c6ccc(-c7ccc[n+](C)c7)cc6)cc5)cc4)cc3)cc2)c1.Cc1ccc(S(=O)(=O)[O-])cc1.Cc1ccc(S(=O)(=O)[O-])cc1 | -0.4 | 2.25 | 2.5 | – | 0.5 µM | 14 | 0.63 µM | 0.84 µM |
| C[n+]1ccc(Nc2ccc(/C=C/c3ccc(Nc4cc[n+](C)c5ccc(N)cc45)cc3)cc2)cc1.[Br-].[Br-] | 0.31 | 2.19 | 1.8 | – | 0.15 µM | 16 | 0.38 µM | 0.53 µM |
| C[n+]1cccc2cc(NC(=O)c3ccc(C(=O)Nc4ccc(NC(=O)c5ccc6c(ccc[n+]6C)c5)cc4)cc3)ccc21.Cc1ccc(S(=O)(=O)[O-])cc1.Cc1ccc(S(=O)(=O)[O-])cc1 | -0.57 | 1.65 | 80 | – | 0.35 µM | 90 | 0.3 µM | 0.8 µM |
| C[n+]1cccc(NC(=O)c2ccc(NC(=O)c3ccc(C(=O)Nc4ccc[n+](C)c4)cc3)cc2)c1.Cc1ccc(S(=O)(=O)[O-])cc1.Cc1ccc(S(=O)(=O)[O-])cc1 | -0.11 | <1.4 | – | 0.325 | 7.7 µM | 4 | 11.2 µM | 22 µM |
| COc1cc(N)cc2c(Nc3ccc(NC(=O)c4ccc(Nc5cc[n+](C)cc5)cc4)cc3)cc[n+](C)c12.Cc1ccc(S(=O)(=O)[O-])cc1.Cc1ccc(S(=O)(=O)[O-])cc1 | 0.07 | 2.33 | 1.1 | – | 0.1 µM | 56 | 0.31 µM | 0.61 µM |
| C[n+]1cccc(NC(=O)c2ccc(NC(=O)/C=C/c3ccc(C(=O)Nc4ccc(C(=O)Nc5ccc[n+](C)c5)cc4)cc3)cc2)c1.Cc1ccc(S(=O)(=O)[O-])cc1.Cc1ccc(S(=O)(=O)[O-])cc1 | -0.95 | 1.99 | 21 | – | 0.22 µM | 100 | 0.3 µM | 0.23 µM |
